# Source: patent publication US20160287621A1, “BIOLOGICAL PRODUCTION OF NAD PRECURSORS AND ANALOGS” (PRESIDENT AND FELLOWS OF HARVARD COLLEGE, priority 2013, published 2016)
# Experiments:
# [1] = test system: Human dermal fibroblasts (HDFa); test: NAD+ levels in human dermal fibroblasts treated for 24 hrs; format: cell-based
# Method: A and B) Human dermal fibroblasts (HDFa) were treated with various concentration of NMN extract or pure NMN from Sigma (St. Louis, Mo.) respectively for 24 hrs and NAD+ levels were determined.
# A) and B) Human dermal fibroblasts (HDFa) were treated with 50 μM of pure NMN and different concentration of Folate or S-adenosyl-L-methionine (SAM) respectively for 24 hrs and NAD^+ levels were determined.
# The effect of pure NMN and partially purified NMN extract on the NAD^+ level in cells was investigated. Briefly, human dermal fibroblasts (HDFa) were treated with varying concentrations of NMN extract or pure NMN for 24 hours and NAD^+ levels were determined. Pure NMN was obtained from Sigma. Partially purified NMN extract was obtained using the methods described above.
# [2] = cigarette smokers, small clinical trial; cited from earlier work
smiles,measurement,setting,value
"NC(=O)c1ccc[n+]([C@@H]2O[C@H](COP(=O)([O-])O)[C@@H](O)[C@H]2O)c1 [Pure NMN, nicotinamide mononucleotide]",NAD+ levels in cells,"[1]; varying concentrations, 24 hours",increased levels of NAD^+
"C[S+](CC[C@H](N)C(=O)O)C[C@H]1O[C@@H](n2cnc3c(N)ncnc32)[C@H](O)[C@@H]1O (stereo partly drawn) [SAM, S-adenosyl-L-methionine]",effect for raising NAD+ levels in combination with NMN,"[1]; 50 μM pure NMN plus different concentrations of Folate or SAM, 24 hrs",synergistic effect
Cc1nc(-c2cccnc2)sc1C(=O)Nc1ccccc1-c1cn2c(CN3CCOCC3)csc2n1 [SRT2104],"serum lipid profile (total cholesterol, LDL and triglycerides)",[2],improved the serum lipid profile
